Test results: article PMC12610573, “New Chlormequat-Based Ionic Liquids as Plant Resistance Inducers” (Molecules, 2025)

Assays:
[1] = test system: Tobamovirus tabaci (tobacco mosaic virus, TMV) on Nicotiana tabacum cv. Xanthi; assay: SAR induction assay: necrotic area after TMV inoculation of sprayed tobacco; assay type: in vivo; conditions: for SAR Induction (percentage of necrotic area on leaves): TMV inoculation after 7 days, read 7 days later, UTC 34.54; for Reduction in Necrotic Area: compared with untreated control plants
Procedure: Plants of Nicotiana tabacum cv. Xanthi were grown under greenhouse conditions at 25 °C and 50% relative humidity, under natural daylight during the May–August growing season, with a natural photoperiod. The plants were sprayed with solutions containing the tested compounds.
In all experiments, the TMV SL-1 isolate Tobamovirus (TMV) was used. To obtain a viral inoculum, Nicotiana tabacum cv. Samsun plants were sap-inoculated with previously virus-infected plant material. After the appearance of disease symptoms on the infected plants (leaf mosaic), the virus was isolated by sucrose density gradient centrifugation with 0.01 M Tris-HCl, pH 7.0, to prepare the infectious inoculum. The concentration of virus in the obtained preparation was determined spectrophotometrically. The samples of TMV were stored at −20 °C until use.
The tested active substances at a given concentration were sprayed on tobacco plants with three fully developed leaves. The volume of working solution used was equal to 10 mL per plant. The compounds were dissolved in a water/propylene glycol solution (95/5, v/v). The plants of the untreated control variant were sprayed with a water/propylene glycol solution (95/5, v/v) that was used for the preparation of solutions of the tested compounds. After seven days, the plants were mechanically inoculated using purified viral preparations (0.01 ng/mL as described in [34]).
The plants were inoculated with the TMV inoculum at a concentration of 3.8 × 10^−4 ng per leaf. For each variant of treatment, 3 plants were sprayed, and 3 leaves of each plant were analyzed. The entire experiment was performed in 2 replicates. Necrotic areas on the leaves were determined using ImageJ software.
The surface of a leaf or an area with necrotic spots is represented by a set of pixels in the image, which are counted by the program. Reduction in necrotic area (ISAR) is expressed by the following formula:(1) ISAR=100−(At/Ac∗100) where At is the ratio of the area of necrotic spots caused by viral infection that appeared on the leaf treated with the test substance to the whole area of the leaf; Ac is the ratio of the area of the necrotic spots caused by viral infection that appeared on the leaf of the control plant to the whole area of the leaf.
(§1) Statistical significance of the effect of the treatments of plants with tested compounds on the phytotoxicity and SAR induction was assessed with the ANOVA test performed using the Statistica program StatSoft with software version 9.1 (StatSoft Sp. z o.o., Kraków, Poland). The statistical assumptions of normality and homogeneity of variances were verified prior to conducting the ANOVA tests. Differences between the means were estimated with Tukey’s HSD test at the significance level of p = 0.05.

[2] = test system: radish (Raphanus sativus) sprouts; assay: Phytotoxicity test on radish sprouts; assay type: in vivo; conditions: for Reduction in Sprout Mass: compared with untreated control; for Mass of 25 Sprouts: radish, 5 days, UTC 3.09 g; for Phytotoxic effect on radish sprout mass: versus control
Procedure: Twenty five seeds of radish (Raphanus sativus) were placed on a filter tissue in a Petri dish. […] Then, sprouts were weighted. All variants of treatment were tested together, with 3 replications (plates) in each of 2 cycles performed. Results were subjected to statistical analysis as described in Section 4.8.
as §1

[3] = Thermogravimetric analysis (TGA), thermal stability; conditions: TGA under nitrogen, 10 °C/min; for Thermal Stability T5%onset: 5% weight loss onset; for Thermal Stability Tonset: decomposition onset
Procedure: TGA was performed on a TGA Q50 (Texas Instruments, Dallas, TX, USA) under nitrogen. Samples (5–10 mg) were heated from 25 °C to 500 °C at 10 °C/min with an isothermal step at 85 °C for 10 min. T5%onset and Tonset values were recorded.

[4] = Solubility tests in representative solvents (Vogel protocol); conditions: 25 °C; for solubility: thermodynamic from solid
Procedure: The solubilities of the prepared ILs in ten representative solvents were determined according to the protocols from Vogel’s Textbook of Practical Organic Chemistry. The solvents chosen for the study were arranged in order of descending value of their Snyder polarity index: water—9.0, methanol—6.6, acetone—5.1, isopropanol—4.3, toluene—2.3, and hexane—0.0.

[5] = organic solvent or mixture, Solubility in Acetone, Snyder polarity index 5.1
[6] = organic solvent or mixture, Solubility in Hexane, Snyder polarity index 0.0
[7] = organic solvent or mixture, Solubility in Isopropanol, Snyder polarity index 4.3
[8] = organic solvent or mixture, Solubility in Methanol, Snyder polarity index 6.6
[9] = organic solvent or mixture, Solubility in Toluene, Snyder polarity index 2.3
[10] = water, Solubility in Water, Snyder polarity index 9.0
[11] = topical, read-out: Reduction in Necrotic Area

SMILES | SAR Induction (percentage of necrotic area on leaves) ([1]; 125 mg/L spray) | Reduction in Necrotic Area ([1]; 125 mg/L) [%] | SAR Induction (percentage of necrotic area on leaves) ([1]; 250 mg/L spray) | Reduction in Necrotic Area ([1]; 250 mg/L) [%] | Reduction in Sprout Mass ([2]; 125 mg/L) [%] | Mass of 25 Sprouts ([2]; 125 mg/L) | Reduction in Sprout Mass ([2]; 250 mg/L) [%] | Mass of 25 Sprouts ([2]; 250 mg/L) | Thermal Stability T5%onset [3] [°C] | Thermal Stability Tonset [3] [°C] | solubility [4, 5] [mg/mL] | solubility [4, 6] [mg/mL] | solubility [4, 7] [mg/mL] | solubility [4, 8] [mg/mL] | solubility [4, 9] [mg/mL] | solubility [4, 10] [mg/mL] | also measured
C[N+](C)(C)CCCl.O=C([O-])c1ccncc1 [[CC][IsoNic]] | 24.51 ef A % | 29.0 | 21.48 g A % | 37.8 | 15.70 | 2.60 fgh C | 35.65 | 1.99 efg AB | 164.3 | 85.3 |  |  |  |  |  |  | 
C[N+](C)(C)CCCl.O=C([O-])c1cccnc1 [[CC][Nic]] | 19.70 de B % | 43.0 | 11.52 def A % | 66.7 | 8.20 | 2.84 hi B g | 26.16 | 2.28 hi A g | 166.9 | 89.9 |  |  |  |  |  |  | Phytotoxic effect on radish sprout mass ([2]; 125 mg/L): no phytotoxic effect; Phytotoxic effect on radish sprout mass ([2]; 250 mg/L): significant decrease in the radish sprout mass
C[N+](C)(C)CCCl [[CC][Cl], Chlormequat chloride, reference compound] |  |  |  |  | 24.00 | 2.35 def B g |  | 2.08 fgh A | 255.0 | 259.8 | < 33.3 | < 33.3 | < 33.3 | > 100 | < 33.3 | > 100 | Solubility in Isopropanol [4]: remained insoluble
C[N+](C)(C)CCCl.O=C([O-])c1ccccc1O [[CC][Sal], chlormequat salicylate] | 19.99 de B % |  | 12.39 ef A % |  | 8.79 | 2.82 hi C g | 26.91 | 2.26 hi B g | 186.1 | 93.3 | < 33.3 | < 33.3 | 33.3 to 100 | > 100 | < 33.3 | > 100 | pest or weed control at 125 µg/mL [1, 11]: 42.1%; pest or weed control at 250 µg/mL [1, 11]: 64.1%; solubility ([4]; water, Solubility (water)): > 100 mg/mL
C[N+](C)(C)CCCl.O=C([O-])c1cc(Cl)cc(Cl)c1O [[CC][3,5-ClSal]] | 7.79 ab A % | 77.4 | 4.93 abc A % | 85.7 | 27.51 | 2.24 cde C g | 37.38 | 1.94 ef B g | 208.3 |  |  |  |  |  |  |  | Solubility in Hexane ([4]; Snyder polarity index 0.0): − (insoluble); Solubility in Toluene ([4]; Snyder polarity index 2.3): − (insoluble); Solubility in Isopropanol ([4]; Snyder polarity index 4.3): +/− (of limited solubility); Solubility in Acetone ([4]; Snyder polarity index 5.1): − (insoluble); Solubility in Methanol ([4]; Snyder polarity index 6.6): + (soluble); Solubility in Water ([4]; Snyder polarity index 9.0): +/− (of limited solubility)
